Assay results: ChEMBL document CHEMBL5725623, “4-azaindole derivatives” (2018)

Experiment: Positive allosteric modulator pEC50 values and antagonist pIC50 values for each compound were then determined. […] Data analysis was carried out using a 4 parameter logistic nonlinear regression model with the XLFIT (IDBS) excel add-in10. 1-10 Examples 76-80 and 82-89 were tested in a slightly modified procedure. The points of modification and the alternate reagents, concentrations or equipment employed in these examples were: 1200 μg/ml hygromycin B; 2G418 not added; 3CELLBANKER 1; 410E6; 5 40 μl; 6 1 in 99; 7 20 μl; 8FDSS6000 (Hamamatsu Photonics); 9(480Ex, 540Em); 10Spotfire (TIBCO).As measured by the above in vitro assay, compound Examples 1 to 105 are positive allosteric modulators of mAChR M1 displaying the pEC50 values for positive allosteric modulation given in Table 2.
Details: 0.5 h

COc1ccc(Cn2cc(C(=O)NC3CCOC[C@@H]3O)c3nccc(Cl)c32)cc1 (stereo partly specified) and COc1ccc(Cn2cc(C(=O)NC3CCOC[C@@H]3O)c3nccc(C)c32)cc1 (stereo partly specified) are within 1.5-fold of each other in EC50: 12.6 nM for the first, 10 nM for the second.

Compared with COc1ccc(Cn2cc(C(=O)NC3CCOC[C@@H]3O)c3nccc(C)c32)cc1F (stereo partly specified), COc1cc(Cn2cc(C(=O)NC3CCOC[C@@H]3O)c3nccc(C)c32)ccn1 (stereo partly specified) is 4-fold higher in EC50: 12.6 nM for the first, 50.1 nM for the second. The first is the more potent here.

Compared with Cc1ccnc2c(C(=O)NC3CCOC[C@@H]3O)cn(Cc3ccc(F)cc3)c12 (stereo partly specified), O=C(NC1CCC(F)(F)C[C@H]1O)c1cn(Cc2ccc(F)cc2)c2cccnc12 (stereo partly specified) is 50-fold higher in EC50: 15.8 nM for the first, 794 nM for the second. The first is the more potent here.
